# Test results taken from publication PMC6185871, “Discovery of super soft-drug modulators of sphingosine-1-phosphate receptor 1” (Bioorganic & Medicinal Chemistry Letters, 2018).
# Columns and labels:
# S1PR1 = target: T1, S1PR1 (Homo sapiens, UniProt P21453); assay: PathHunter CHO-K1 EDG1 β-Arrestin recruitment assay; format: cell-based
# T1 construct: host or cells: CHO-K1 (PathHunter EDG1 β-Arrestin cell line)
# Experimental: (§1) We selected human plasma stability as a model for human blood metabolism. […] S1PR1 activity was measured using a PathHunter β-Arrestin recruitment assay.[23]
# [23] The PathHunter® CHO‐K1 EDG1 β‐Arrestin Cell Line (Discoverx) was used to assess agonist activity of the compounds. Briefly, compound at 5× desired concentration was added to cells and incubated at 37 °C for 90 min. Assay signal was generated through a single addition of PathHunter Detection reagent cocktail, followed by a one hour incubation at room temperature. Microplates were read following signal generation with a PerkinElmer Envision instrument for chemiluminescent signal detection. Percentage activity was calculated using the following formula: % Activity = 100% × (mean RLU of test sample − mean RLU of vehicle control)/(mean MAX control ligand − mean RLU of vehicle control).
# [1] = Kinetic aqueous solubility by laser nephelometry; format: physicochemical
# [2] = Chromatographic hydrophobicity index (CHI) logD by reverse-phase HPLC; format: physicochemical
# in vitro = in vitro ADME, human; settings: for half-life: human, plasma
# Experimental: as §1
# Human skin S9 stability = format: in vitro ADME; settings: human skin S9 fraction, skin S9 over 180 mins in the presence of enzymatic cofactors
# Text: It may be that the esterases responsible for the metabolism of 12f are present in both human plasma and skin S9 fraction or that skin and plasma esterases have similar substrate affinities.
# plaque psoriasis = test system: plaque psoriasis; parameters: method as in PMID 25127208; settings: oral, phase II clinical trial of psoriasis; cited from earlier work
# [3] = test system: Langerhans cells migrating to the lymph node; parameters: method as in PMID 19194476; settings: mice, topical application; cited from earlier work
# [4] = PathHunter β-Arrestin, n of 2, geometric mean, range in brackets
# T1 sequence (P21453 whole entry): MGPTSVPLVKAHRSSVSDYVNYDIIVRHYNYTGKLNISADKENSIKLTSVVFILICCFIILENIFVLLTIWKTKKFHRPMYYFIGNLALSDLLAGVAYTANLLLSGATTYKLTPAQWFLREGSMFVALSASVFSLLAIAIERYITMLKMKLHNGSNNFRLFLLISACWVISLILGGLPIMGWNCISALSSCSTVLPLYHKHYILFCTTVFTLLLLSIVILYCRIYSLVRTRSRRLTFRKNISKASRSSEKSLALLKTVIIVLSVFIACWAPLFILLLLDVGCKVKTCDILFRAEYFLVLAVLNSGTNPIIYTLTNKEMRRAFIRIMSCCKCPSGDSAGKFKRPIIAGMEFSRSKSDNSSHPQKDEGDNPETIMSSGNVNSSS
SMILES,S1PR1 pIC50 (S1PR1; [4]),Kinetic solubility [1],CHI logD [2],half-life (in vitro),further results
CCC/N=C1\S/C(=C\c2ccc(C(=O)O)cc2)C(=O)N1c1ccccc1C [Compound 4a],<6 (0),163 µM,1.0,,
CCC/N=C1\S/C(=C\c2ccc(C(=O)OC)c(Cl)c2)C(=O)N1c1ccccc1C [Compound 5a],8.6 (0.1),39 µM,>4.4,> 3 h,improvement in S1PR1 activity compared to 5b (S1PR1; compared to 5b): 100 fold
CCC/N=C1\S/C(=C\c2ccc(C(=O)OC)cc2)C(=O)N1c1ccccc1C [Compound 5b],6.5 (0),28 µM,>4.4,> 3 h,
CCC/N=C1\S/C(=C\c2ccc(C(=O)OCCO)cc2)C(=O)N1c1ccccc1C [Compound 5c],6.9 (0),,3.4,> 3 h,
CCC/N=C1\S/C(=C\c2ccc(C(=O)NCCO)cc2)C(=O)N1c1ccccc1C [Compound 5d],7.0 (0),>250 µM,2.3,> 3 h,
CCC/N=C1\S/C(=C\c2ccc(OC[C@H](O)CO)c(Cl)c2)C(=O)N1c1ccccc1O [Compound 6],,,,,"IC50 (S1PR1; PathHunter β-Arrestin, n of 2, geometric mean, range in brackets, read-out: S1PR1 pIC50 (converted)): 12.6 nM"
CCC/N=C1\S/C(=C\c2ccc(C(=O)O)cc2)C(=O)N1c1ccccc1O [Compound 11],,,,> 3 h,S1PR1 modulator activity (in words) (S1PR1): inactive
CCC/N=C1\S/C(=C\c2ccc(C(=O)NCC(=O)N(C)C)cc2)C(=O)N1c1ccccc1O [Compound 12a],,,1.9,> 3 h,metabolism in human plasma stability assay (in words) (in vitro): lack of metabolism
CCC/N=C1\S/C(=C\c2ccc(C(=O)OCCCO)cc2)C(=O)N1c1ccccc1O [Compound 12b],,183 µM,2.3,> 3 h,
CCC/N=C1\S/C(=C\c2ccc(C(=O)OCC(O)CO)cc2)C(=O)N1c1ccccc1O (stereo not drawn) [Compound 12c],,>250 µM,1.8,> 3 h,
CCC/N=C1\S/C(=C\c2ccc(C(=O)OCCN3CCOCC3)cc2)C(=O)N1c1ccccc1O [Compound 12d],,117 µM,3.0,3 h,half-life at 3 h (Human skin S9 stability): 2.53 h
CCC/N=C1\S/C(=C\c2ccc(C(=O)OCC3COC(=O)O3)cc2)C(=O)N1c1ccccc1O (stereo not drawn) [Compound 12e],,79 µM,2.8,1.02 h,half-life at 3 h (Human skin S9 stability): 0.667 h; metabolism in human plasma stability assay (in words) (in vitro): did not show sufficient clearance
CCC/N=C1\S/C(=C\c2ccc(C(=O)OCc3oc(=O)oc3C)cc2)C(=O)N1c1ccccc1O [Compound 12f],,79 µM,3.3,0.15 h,S1PR1 modulator activity (in words) (S1PR1): inactive; half-life at 3 h (Human skin S9 stability): 0.383 h; metabolism in human plasma stability assay (in words) (in vitro): rapidly degraded
CCC/N=C1\S/C(=C\c2ccc(CC(=O)OC)cc2)C(=O)N1c1ccccc1O [Compound 15a],,,3.2,> 3 h,
CCC/N=C1\S/C(=C\c2ccc(CCC(=O)OC)cc2)C(=O)N1c1ccccc1O [Compound 15b],,79 µM,3.5,> 3 h,
"CCC/N=C1\S/C(=C\c2ccc(OC[C@H](O)CO)c(Cl)c2)C(=O)N1c1ccccc1C [Ponesimod, ponesimod, reference compound]",7.9 (0),110 µM,3.1,> 3 h,systemic side effects observed (plaque psoriasis): lymphopenia and transient bradycardia
CCCCCCCCc1ccc(CCC(N)(CO)CO)cc1 [fingolimod],,,,,number of Langerhans cells migrating to the lymph node [3]: reduction
